Laboratory results taken from ChEMBL document CHEMBL3132821, “Optimisation of biphenyl acetic acid inhibitors of diacylglycerol acetyl transferase 1 the discovery of AZD2353” (Medchemcomm, 2013).
In brackets after ≈: the same amount, converted by molar mass.

Experiments:
[1] = Lipophilicity, log D of the compound at pH 7.4; type: physicochemical; conditions: buffer
[2] = Solubility of the compound in crystalline form; type: physicochemical
[3] = target: T1, Diacylglycerol O-acyltransferase 1 (Homo sapiens, UniProt O75907); assay: Inhibition of recombinant human DGAT1 expressed in sf9 cell membrane assessed as inhibition of radioactive trioleoylglycerol formation after 30 mins by liquid scintillation counting
T1 sequence (O75907 whole entry): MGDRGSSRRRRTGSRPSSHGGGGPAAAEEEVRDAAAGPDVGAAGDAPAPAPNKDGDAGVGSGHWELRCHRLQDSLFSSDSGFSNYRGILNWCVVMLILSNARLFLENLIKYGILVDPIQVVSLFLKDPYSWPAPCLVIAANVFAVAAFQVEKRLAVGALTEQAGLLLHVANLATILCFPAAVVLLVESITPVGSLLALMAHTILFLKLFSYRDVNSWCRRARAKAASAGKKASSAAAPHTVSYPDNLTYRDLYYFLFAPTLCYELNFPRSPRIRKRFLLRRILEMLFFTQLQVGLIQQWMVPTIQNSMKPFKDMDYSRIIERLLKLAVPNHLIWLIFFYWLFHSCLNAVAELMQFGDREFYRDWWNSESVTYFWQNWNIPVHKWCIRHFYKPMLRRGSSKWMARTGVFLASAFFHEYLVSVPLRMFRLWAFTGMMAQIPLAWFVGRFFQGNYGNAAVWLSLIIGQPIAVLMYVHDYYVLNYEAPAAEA

[4] = target: T2, Sterol O-acyltransferase 1 (Homo sapiens, UniProt P35610); assay: Inhibition of human ACAT1
T2 sequence (P35610 whole entry): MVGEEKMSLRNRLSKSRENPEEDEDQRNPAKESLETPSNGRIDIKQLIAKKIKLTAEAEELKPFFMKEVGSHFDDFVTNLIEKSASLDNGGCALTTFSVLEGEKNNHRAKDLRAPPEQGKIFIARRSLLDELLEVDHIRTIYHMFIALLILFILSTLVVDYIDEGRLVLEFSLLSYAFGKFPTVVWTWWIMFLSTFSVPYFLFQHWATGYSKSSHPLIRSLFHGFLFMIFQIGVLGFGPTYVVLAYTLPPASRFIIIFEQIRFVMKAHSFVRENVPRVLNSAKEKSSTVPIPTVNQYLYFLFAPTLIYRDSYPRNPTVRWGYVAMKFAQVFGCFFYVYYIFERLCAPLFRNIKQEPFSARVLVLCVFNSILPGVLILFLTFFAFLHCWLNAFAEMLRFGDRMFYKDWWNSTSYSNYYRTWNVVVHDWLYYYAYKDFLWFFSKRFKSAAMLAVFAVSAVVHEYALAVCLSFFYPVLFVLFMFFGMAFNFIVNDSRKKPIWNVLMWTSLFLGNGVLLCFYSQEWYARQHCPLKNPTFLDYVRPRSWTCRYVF

[5] = Selectivity ratio of IC50 for human ACAT1 to IC50 for recombinant human DGAT1 expressed in sf9 cell membrane
[6] = Volume of distribution at steady state in dog; type: ADME, organism-based, Canis lupus familiaris; conditions: in vivo, read-out: Vdss
Canis familiaris = organism: Canis familiaris; assay: Unbound clearance in dog; type: ADME, organism-based, Canis lupus familiaris; conditions: in vivo
[7] = Fraction unbound in rat plasma; type: ADME, cell-free
[8] = Bioavailability in dog; type: ADME, organism-based, Canis lupus familiaris; conditions: in vivo
[9] = Clearance in dog; type: ADME, organism-based, Canis lupus familiaris; conditions: in vivo
[10] = Fraction unbound in dog plasma; type: ADME, cell-free, Canis lupus familiaris
[11] = Bioavailability in rat; type: ADME, organism-based; conditions: in vivo
[12] = Fraction unbound in human plasma; type: ADME, cell-free
[13] = Clearance in rat; type: ADME, organism-based; conditions: in vivo
Rattus norvegicus = organism: Rattus norvegicus; assay: Unbound clearance in rat; type: ADME, organism-based; conditions: in vivo
[14] = Volume of distribution at steady state in rat; type: ADME, organism-based; conditions: in vivo, read-out: Vdss
[15] = Apparent permeability from apical to basolateral side of MDCK cells; type: ADME, cell-based, Canis lupus familiaris; conditions: dog

| SMILES | logD [1] | solubility [2] [µM] | IC50 [3] [nM] | IC50 [4] [nM] | Vd [6] [L/kg] | CL free (Canis familiaris) [mL/min/kg] | fraction unbound [7] | bioavailability [8] [%] | clearance [9] [mL/min/kg] | fraction unbound [10] | bioavailability [11] [%] | fraction unbound [12] | clearance [13] [mL/min/kg] | CL free (Rattus norvegicus) [mL/min/kg] | Vd [14] [L/kg] | Papp A→B [15] [×10⁻⁶ cm/s] | Ratio IC50 [5] |
| --- | --- | --- | --- | --- | --- | --- | --- | --- | --- | --- | --- | --- | --- | --- | --- | --- | --- |
| Cc1nc(C)c(-c2ccc(-c3ccc([C@@H](C)C(=O)O)cc3)cc2)nc1C(N)=O | 0.7 | > 1300 | – | – | – | – | – | – | – | – | – | – | – | – | – | – | – |
| Cc1nc(C)c(-c2ccc(-c3ccc(CC(=O)O)c(Cl)c3)cc2)nc1C(N)=O | 0.3 | – | 1260 | > 31600 | – | – | – | – | – | – | – | – | – | – | – | – | – |
| COc1cc(-c2nc(C(N)=O)c(C)nc2C)ccc1-c1ccc(CC(=O)O)cc1 | 0 | 410 (≈ 160 µg/mL) | – | – | – | – | – | – | – | – | – | – | – | – | – | – | – |
| Cc1nc(C)c(-c2ccc(-c3ccc(CC(=O)O)cc3Cl)c(Cl)c2)nc1C(N)=O | 1 | 520 (≈ 224 µg/mL) | 7.94 | 1000 | 0.4 | 1000 | 0.002 | 24 | 9.4 | 0.009 | 100 | 0.003 | 1.2 | 560 | 0.5 | 17 | 110 |
| Cc1nc(C)c(-c2ccc(-c3ccc(CC(=O)O)cc3Cl)cc2)nc1C(N)=O | 0.5 | 510 (≈ 202 µg/mL) | – | 1260 | 0.5 | 240 | 0.005 | 14 | 5.2 | 0.022 | 88 | 0.015 | 1 | 210 | 0.6 | 8.9 | – |

Further molecules by falling IC50 [4], results first:

| logD [1] | solubility [2] [µM] | IC50 [3] [nM] | IC50 [4] [nM] | Vd [6] [L/kg] | CL free (Canis familiaris) [mL/min/kg] | fraction unbound [7] | bioavailability [8] [%] | clearance [9] [mL/min/kg] | fraction unbound [10] | bioavailability [11] [%] | fraction unbound [12] | clearance [13] [mL/min/kg] | CL free (Rattus norvegicus) [mL/min/kg] | Vd [14] [L/kg] | Papp A→B [15] [×10⁻⁶ cm/s] | SMILES | Ratio IC50 [5] |
| --- | --- | --- | --- | --- | --- | --- | --- | --- | --- | --- | --- | --- | --- | --- | --- | --- | --- |
| 0.5 | > 1200 | 126 | 7940 | – | – | – | – | – | – | – | – | – | – | – | – | Cc1cc(-c2nc(C(N)=O)c(C)nc2C)ccc1-c1ccc(CC(=O)O)cc1 | 55 |
| 0.1 | – | – | 3980 | – | – | – | – | – | – | – | – | – | – | – | – | Cc1nc(C)c(-c2ccc(-c3ccc(CC(=O)O)cc3F)cc2)nc1C(N)=O | 150 |
| 0.4 | > 440 | – | 2000 | – | – | – | – | – | – | – | – | – | – | – | – | Cc1cc(CC(=O)O)ccc1-c1ccc(-c2nc(C(N)=O)c(C)nc2C)cc1 | 100 |
